Counter-ions that a name gives are not always drawn.

The term inhibition denotes the share of the control response that was lost under treatment. Higher therefore signals a strong effect.

One experiment relates to SSAT translation. Kind of experiment: Drug screening with mutant 6 SSAT-luciferase reporter construct in transfected HEK 293T cells. The format is cell-based, human. The conditions noted are these: Homo sapiens, 12 h; procedure of Example 6 (10 μM, mutant 6 construct, HEK 293T), increase over basal SSAT translation. The procedure: The mutant 6 chimeric construct of Example 4 (A424C; A426C; FIG. 18G) cloned into pLEX MCS plasmid was utilized in drug screening as follows. HEK 293T cells (ATCC) were grown in DMEM supplemented with 10% fetal bovine serum and antibiotics. The HEK 293T cells were transfected with the mutant 6/pLEX MCS plasmid using HTS-Jetpei transfection reagent (Polyplus Transfection, Illkirch, France). Transfected HEK293T cells were incubated overnight at 37° C. After 24 hours, cells transfected cells in 96-well plates used for screening were treated with 10 μM of test compound from a compound library in DMSO. Untreated cells were used as the negative control, and cells treated with 10 μM DENSPM comprised a positive control. The luciferase signaling in each plate was independently analyzed using a Glomax Luminometer (Promega Corp.) by comparing the signals against the controls twelve hours after treatment.
The procedure of Example 6 was followed, screening for compounds that increase SSAT translation. The agents listed in Table 11 were identified as increasing SSAT translation by at least 35% over basal SSAT translation.
For the molecule `Nc1nc(NC2CC2)c2ncn([C@H]3C=C[C@@H](CO)C3)c2n1` [Abacavir Sulfate], the activation at 10 µM was found to be 36%.

In turn, `CC(=O)OCC(=O)[C@@]12N=C(C)O[C@@H]1C[C@H]1[C@@H]3CCC4=CC(=O)C=C[C@]4(C)[C@H]3[C@@H](O)C[C@@]12C` [Deflazacort] showed an activation at 10 µM of 37%.

`CN(C)CCOC(C)(c1ccccc1)c1ccccn1` (stereo not shown) [Doxylamine succinate]: the activation at 10 µM was found to be 62%. On to `C[C@]12CC[C@H]3C(=CCc4cc(O)ccc43)[C@@H]1CCC2=O` [Equilin], for which the activation at 10 µM turned out to be 36%. The same measure, in the same setting: for `Nc1[nH]c(=O)ncc1F` [Flucytosine] the value was 35%; for `COc1ccc2cc(CCC(C)=O)ccc2c1` [Nabumetone], 59%. Molecule `N=C(N)c1ccc(OCCCCCOc2ccc(C(=N)N)cc2)cc1` [Pentamidine isethionate] came in with an activation at 10 µM of 36%. As for `Nc1ccc(/N=N/c2ccccc2)c(N)n1` [Phenazopyridine hydrochloride], the activation at 10 µM came to 41%. On the same count and under the same terms, for `CCc1ccc(CCOc2ccc(CC3SC(=O)NC3=O)cc2)nc1` (stereo not shown) [Pioglitazone] the value was 50%. Still for that read-out and setting: to `NCCNCCNCCNCCN` [Tetraethylenepentamine pentahydrochloride] belongs 60%; to `c1ccc2[nH]c(-c3cscn3)nc2c1` [Tiabendazole], 39%.

Staying with this experiment, now noted: Homo sapiens; 10 μM test compound, HEK 293T cells transfected with mutant 6 construct, luciferase signal twelve hours after treatment.
For `CC(C)(C)c1ccc(C(O)CCCN2CCC(C(O)(c3ccccc3)c3ccccc3)CC2)cc1` (racemic) [Terfenadine, (RS)-1-(4-tert-butylphenyl)-4-{4-[hydroxy(diphenyl)methyl]piperidin-1-yl}-butan-1-ol], the inhibition at 10 µM is 100%. Still for that read-out and setting: for `CCCCCCCCN[C@H](C)[C@@H](O)c1ccc(SC(C)C)cc1` (relative stereo) [Suloctidil, (R*,S*)-4-((1-methylethyl)thio)-alpha-(1-(octylamino)ethyl)benzene-methanol] the value was 99.9%. The same measure, in the same setting: for `C[C@H]1OC(OC2[C@@H](O)C[C@H](OC3[C@@H](O)CC(O[C@H]4CC[C@@]5(C)[C@H](CC[C@@H]6[C@@H]5C[C@@H](O)[C@]5(C)[C@@H](C7=CC(=O)OC7)CC[C@]65O)C4)O[C@@H]3C)O[C@@H]2C)C[C@H](O)C1O` (stereo in doubt) [Digoxin, 4-[(3S,5R,8R,9S,10S,12R,13S,14S)-3-[(2S,4S,5R,6R)-5-[(2S,4S,5R,6R)-5-[(2S,4S,5R,6R)-4,5-dihydroxy-6-methyl-oxan-2-yl]oxy-4-hydroxy-6-methyl-oxan-2-yl]oxy-4-hydroxy-6-methyl-oxan-2-yl]oxy-12,14-dihydroxy-10,13-dimethyl-1,2,3,4,5,6,7,8,9,11,12,15,16,17-tetradecahydrocyclopenta[a]phenanthren-17-yl]-5H-furan-2-one] the value was 93.9%; for `CCCCC(CC)CNC(=N)NC(=N)NCCCCCCNC(=N)NC(=N)NCC(CC)CCCC` (stereo not shown) [Alexidine dihydrochloride, 1,1′-Hexamethylene-bis[5-(2-ethylhexyl)biguanide] dihydrochloride], 99.6%. Same read-out and setting: to `O=C1CCc2ccc(OCCCCN3CCN(c4cccc(Cl)c4Cl)CC3)cc2N1` [Aripiprazole, 7-{4-[4-(2,3-dichlorophenyl)piperazin-1-yl]butoxy}-3,4-dihydroquinolin-2(1H)-one] belongs 92.7%; to `COc1ccc(CCN2CCC(Nc3nc4ccccc4n3Cc3ccc(F)cc3)CC2)cc1` [Astemizole, 1-[(4-fluorophenyl)methyl]-N-[1-[2-(4-methoxyphenyl)ethyl]-4-piperidyl]benzoimidazol-2-amine], 86.2%; to `CC=C(C)C(=O)O[C@H]1[C@H](OC(C)=O)[C@@]2(CO)C(CC1(C)C)C1=CCC3[C@@]4(C)CC[C@H](O[C@@H]5O[C@H](C(=O)O)[C@@H](O[C@@H]6O[C@H](CO)[C@@H](O)[C@H](O)[C@H]6O)[C@H](O)[C@H]5O[C@@H]5O[C@H](CO)[C@@H](O)[C@H](O)[C@H]5O)[C@](C)(CO)C4CC[C@@]3(C)[C@]1(C)C[C@H]2O` (stereo partly drawn) [Beta-Escin, (3α,5β,14β,16α,21α,22α)-22-acetoxy-16,23,28-trihydroxy-1-{[(2Z)-2-methylbut-2-enoyl]oxy}olean-12-en-3-yl-α-D-gulopyranosyl-(1→2)-[a-L-mannopyranosyl-(1→4)]-β-D-allopyranosiduronic acid], 88.7%. `O=C1C=CC(=O)c2c1ccc1c2ccc2ccccc21` [Chrysene-1,4-quinone, chrysene-1,4-dione] yielded an inhibition at 10 µM of 97.3%.

For the molecule `C[C@]12CC[C@H](O)C[C@H]1CC[C@@H]1[C@@H]2CC[C@]2(C)[C@@H](C3=CC(=O)OC3)CC[C@]12O` [Digitoxigenin, 3-β,14-dihydroxy-5-β,14-β-card-20(22)-enolide], the inhibition at 10 µM is 93.4%. Consider `O=C1NCN(c2ccccc2)C12CCN(CCCC(c1ccc(F)cc1)c1ccc(F)cc1)CC2` [Fluspirilen, 8-[4,4-Bis(4-fluorphenyl)butyl]-1-phenyl-1,3,8-triazaspiro[4,5] decan-4-on], for which the inhibition at 10 µM was 94.7%.

The molecule `CC(=O)O[C@H]1C[C@H](OC2[C@@H](O)C[C@H](O[C@H]3[C@@H](O)C[C@H](O[C@H]4CC[C@@]5(C)[C@H](CC[C@@H]6[C@@H]5C[C@@H](O)[C@]5(C)[C@@H](C7=CC(=O)OC7)CC[C@]65O)C4)O[C@@H]3C)O[C@@H]2C)O[C@H](C)[C@H]1O[C@@H]1O[C@H](CO)[C@@H](O)[C@H](O)[C@H]1O` (stereo partly drawn) [Lanatoside C, (3β,5β,12β)-3-{[β-D-glucopyranosyl-(1→4)-3-O-acetyl-2,6-dideoxy-β-D-ribo-hexopyranosyl-(1→4)-2,6-dideoxy-β-D-ribo-hexopyranosyl-(1→4)-2,6-dideoxy-β-D-ribo-hexopyranosyl]oxy}-12,14-dihydroxycard-20(22)-enolide] displayed an inhibition at 10 µM of 91.8%. The same measure, in the same setting: for `C=C1C(=O)O[C@H]2[C@H]1CC/C(C)=C/CC[C@@]1(C)O[C@@H]21` [Parthenolide, (1aR,7aS,10aS,10bS)-1a,5-dimethyl-8-methylene-2,3,6,7,7a,8,10a,10b-octahydrooxireno[9,10]cyclodeca [1,2-b]furan-9(1aH)-one] the value was 99.2%; for `C[C@@H]1O[C@@H](O[C@@H]2C=C3CC[C@@H]4[C@H](CC[C@]5(C)[C@@H](c6ccc(=O)oc6)CC[C@]45O)[C@@]3(C)CC2)[C@H](O)[C@H](O)[C@H]1O` [Proscillaridin A, (3β)-3-[(6-deoxy-α-L-mannopyranosyl)oxy]-14-hydroxybufa-4,20,22-trienolide], 94%; for `Cc1cc(/C=C/c2ccc3cc(N(C)C)ccc3[n+]2C)c(C)n1-c1ccccc1` [Pyrvinium pamoate, 2-[(E)-2-(2,5-dimethyl-1-phenylpyrrol-3-yl)ethenyl]-N,N,1-trimethylquinolin-1-ium-6-amine], 92.5%. As for `O=C1NCCN1CCN1CCC(c2cn(-c3ccc(F)cc3)c3ccc(Cl)cc23)CC1` [Sertindole, 1-[2-[4-[5-chloro-1-(4-fluorophenyl)-indol-3-yl]-1-piperidyl]ethyl]-imidazolidin-2-one], testing at 10 µM gave an inhibition of 99.8%. Still for that read-out and setting: to `CCCCCCCCCCCCCCCC[N+](C)(C)CCN(Cc1ccc(OC)cc1)c1ncccn1` [Thonzonium bromide, N-{2-[(4-Methoxybenzyl)(pyrimidin-2-yl)amino]ethyl}-N,N-dimethylhexadecan-1-aminium bromide] belongs 99%; to `CN(C)CCOc1ccc(/C(=C(/CCCl)c2ccccc2)c2ccccc2)cc1` [Toremifene, 2-{4-[(1Z)-4-chloro-1,2-diphenyl-but-1-en-1-yl]phenoxy}-N,N-dimethylethanamine], 86.3%; to `Fc1ccc(C(OCCN2CCN(CCCc3ccccc3)CC2)c2ccc(F)cc2)cc1` [Vanoxerine dihydrochloride, 1-[2-[bis(4-fluorophenyl)methoxy]ethyl]-4-(3-phenylpropyl)piperazine•(HCl)2], 96.9%.

Still in this experiment, the particulars now being: procedure of Example 6 (10 μM, mutant 6 construct, HEK 293T), increase over basal SSAT translation.
As to `Cc1c(O)c(=O)n(-c2ccccc2)n1C` [Antipyrine, 4-hydroxy], the “% Increase in SSAT Translation” value turned out to be 41%. On the same count and under the same terms, to `CCCCNc1ccc(C(=O)OCCN(C)C)cc1.Cl` [Tetracaïne hydrochloride] belongs 40%.

The record behind these values is US9585380B2, “SSAT mRNA translation repression and activation” (TEMPLE UNIVERSITY—Of The Commonwealth System of Higher …, priority 2011, dated 2017).
